According to US5639765A, “Guanidinoalkyl glycine β-amino acids useful for inhibiting bone loss” (G. D. Searle & Co., priority 1995, dated 1997):
Structures can show the parent of a compound that is named as a salt.

Assays:
[1] = target: T1, Human vitronectin receptor (αv β3) (Homo sapiens, UniProt P05106+P06756); experiment: Solid Phase Receptor Assay, purified αv β3 (vitronectin receptor) competition with biotinylated vitronectin; type: binding; conditions: 1 nM biotinylated vitronectin, 2 h competition, room temperature, R = H, read-out: VnR/IC50
T1 construct: purified from human placenta; from tissue; host or cells: human placenta
Procedure: Human vitronectin receptor(αv β3) was purified from human placenta as previously described [Pytela et al., Methods in Enzymology, 144:475-489 (1987)]. Human vitronectin was purified from fresh frozen plasma as previously described [Yatohgo et al., Cell Structure and Function, 13:281-292 (1988)]. Biotinylated human vitronectin was prepared by coupling NHS-biotin from Pierce Chemical Company (Rockford, Ill.) to purified vitronectin as previously described [Charo et al., J. Biol. Chem., 266(3):1415-1421 (1991)]. Assay buffer, OPD substrate tablets, and RIA grade BSA were obtained from Sigma (St. Louis, Mo.). Anti-biotin antibody was obtained from Calbiochem (La Jolla, Calif.). GRGDSP peptide was purchased from Bachem (Torrance, Calif.). Linbro microtiter plates were obtained from Flow Labs (McLean, Va.). ADP reagent was obtained from Sigma (St. Louis, Mo.).
This assay was essentially the same as previously reported [Niiya et al., Blood, 70:475-483 (1987)]. The purified human vitronectin receptor (αv β3) was diluted from stock solutions to 1.0 μg/mL in Tris-buffered saline containing 1.0 mM Ca^++, Mg^++, and Mn^++, pH 7.4 (TBS^+++). The diluted receptor was immediately transferred to Linbro microtiter plates at 100 μL/well (100 ng receptor/well). The plates were sealed and incubated overnight at 4° C. to allow the receptor to bind to the wells. All remaining steps were at room temperature. The assay plates were emptied and 200 μL of 1% RIA grade BSA in TBS^+++ (TBS^+++ /BSA) were added to block exposed plastic surfaces. Following a 2 hour incubation, the assay plates were washed with TBS^+++ using a 96 well plate washer. Logarithmic serial dilution of the test compound and controls were made starting at a stock concentration of 2 mM and using 2 nM biotinylated vitronectin in TBS^+++ /BSA as the diluent. This premixing of labeled ligand with test (or control) ligand, and subsequent transfer of 50 μL aliquots to the assay plate was carried out with a CETUS Propette robot; the final concentration of the labeled ligand was 1 nM and the highest concentration of test compound was 1.0×10^-4 M. The competition occurred for two hours after which all wells were washed with a plate washer as before. Affinity purified horseradish peroxidase labeled goat anti-biotin antibody was diluted 1:3000 in TBS^+++ /BSA and 125 μL were added to each well. After 30 minutes, the plates were washed and incubated with OPD/H2 O2 substrate in 100 mM/L Citrate buffer, pH 5.0. The plate was read with a microtiter plate reader at a wavelength of 450 nm and when the maximum-binding control wells reached an absorbance of about 1.0, the final A450 were recorded for analysis. The data were analyzed using a macro written for use with the EXCEL™ spreadsheet program. The mean, standard deviation, and % CV were determined for duplicate concentrations. The mean A450 values were normalized to the mean of four maximum-binding controls (no competitor added)(B-MAX). The normalized values were subjected to a four parameter curve fit algorithm [Rodbard et al., Int. Atomic Energy.Agency, Vienna, pp 469 (1977)], plotted on a semi-log scale, and the computed IC50 and corresponding R^2 was reported. GRGDSP, a peptide fragment of fibrinogen, was included on each plate as a positive control.

osteoclastic activity [2] = conditions: cited from earlier work
osteoclastic activity [3] = conditions: cited from earlier work; remark: listed apart in the source

| Compound | IC50 [1] | inhibition of osteoclastic activity in vitro (osteoclastic activity [2]) | inhibition of osteoclastic activity in vivo (osteoclastic activity [3]) |
| --- | --- | --- | --- |
| N=C(N)NCCCC(=O)NCC(=O)NC(CC(=O)O)c1cccnc1 (racemic) [Example 3, (±) β-[[2-[[4-[(aminoiminomethyl)amino]-1-oxobutyl]amino]-1-oxoethyl]amino]-3-pyridinepropanoic acid, bistrifluoroacetate salt] | 23.1 nM |  |  |
| N=C(N)NCCCCCC(=O)NCC(=O)NC(CC(=O)O)c1cccnc1 (racemic) [Example 4, (±) β-[[2-[[6-[(aminoiminomethyl)amino]-1-oxohexyl]amino]-1-oxoethyl]amino]-3-pyridinepropanoic acid, bistrifluoroacetate salt] | 460 nM |  |  |
| N=C(N)NCCCC(=O)NCCC(=O)NC(CC(=O)O)c1cccnc1 (racemic) [Example 5, (±) β-[[3-[[4-[(aminoiminomethyl)amino]-1-oxobutyl]amino]-1-oxopropyl]amino]-3-pyridinepropanoic acid, bistrifluoroacetate salt] | 706 nM |  |  |
| N=C(N)NCC(CC(=O)NCC(=O)NC(CC(=O)O)c1cccnc1)c1ccccc1 (racemic) [Example 6, (±) β-[[2-[[4-[(aminoiminomethyl, amino]-1-oxo-3-phenylbutyl]amino]-1-oxoethyl]amino]-3-pyridinepropanoic acid, bistrifluoroacetate salt] | 31.6 nM |  |  |
| N=C(N)NCCCCC(=O)NCC(=O)NC(CC(=O)O)c1cccnc1 (stereo not drawn) [Example 1, β-[[2-[[5-[(aminoiminomethyl]amino]-1-oxopentyl]amino]-1-oxoethyl]amino]-3-pyridinepropanoic acid, bistrifluoroacetate salt] | 9.4 nM |  |  |
| echistatin |  | potent inhibitors | potent inhibitors |
